Key:
Format in all cases: in vivo
[1] = system: HFD-induced obese C57BL/6J mice; experiment: Renal function markers in HFD-induced obese mice; conditions: for serum CRE level, difference to ND group: 30 mg/kg/day oral, CX30, ND and EGCG groups compared; for serum CRE level, difference to ND group / serum uric acid (UA) level, difference to ND group: 12 weeks; for serum uric acid (UA) level, difference to ND group: CX 10-30 mg/kg/day, EGCG 30 mg/kg/day oral, compared with ND group
From the text: (§1) The animals used in the examples are described below. 5-week-old male C57BL/6J mice were purchased from The National Laboratory Animal Center, Taipei, Taiwan and were maintained in a temperature-controlled room on a 12-h light-dark cycle. They were housed with four per cage and had free access to food and drinking water. Mice fed with a standard diet and adapted to the environment for 1 week were subsequently divided randomly into five groups. The ND group (n=8) continued on the same diet, whereas the other four groups (n=8 per group) were switched to the HFD (494 kcal/100 g, 45% energy as fat; TestDiet Inc., USA). Among the four HFD groups, three groups started to receive CX at 10 mg/kg/day (CX10 group), CX at 30 mg/kg/day (CX30 group), and epigallocatechin gallate (EGCG) (Sigma, Inc., USA) at 30 mg/kg/day (EGCG30 group) by oral gavage. EGCG was suspended in 0.5% methylcellulose solution for oral administration. Food consumption and weight gain were measured daily and weekly, respectively. After 12 weeks, all mice were sacrificed. Serum samples, liver tissue, epididymis adipose tissue and feces were harvested for further analysis. The experimental protocol was approved by the Animal Research Committee of the National Yang Ming Chiao Tung University (IACUC no. 1091013), and all procedures followed The Guide for the Care and Use of Laboratory Animals (NIH publication, 85-23, revised 1996) and the guidelines of the Animal Welfare Act, Taiwan. The procedure regarding biochemical characterization is as follows. The serum triglyceride (TG), total cholesterol (TC), high-density lipoprotein-cholesterol (HDL-C), glutamic oxaloacetic transaminase (GOT), glutamic pyruvic transaminase (GPT), albumin (ALB), uric acid (UA), and creatinine (CRE) levels were measured using enzymatic assay kits with a FUJI DRI-CHEM analyzer (Fujifilm, Tokyo, Japan). The LDL-C level was calculated as [(TC)-(HDL-C)-(TG/5)].

[2] = system: HFD-induced obese C57BL/6J mice; experiment: Fasting blood glucose, IPGTT and insulin resistance in HFD-induced obese mice; conditions: for fasting blood glucose: since the second week, 16 h fasting; for insulin resistance index HOMA-IR / fasting insulin concentration (insulin expression): 12 weeks; for insulin resistance index HOMA-IR: compared with the HFD group; for fasting insulin concentration (insulin expression): serum; for AUC of IPGTT: week 12, glucose 1.0 g/kg i.p., vs HFD group
From the text: as §1, with “regarding blood glucose and intraperitoneal glucose tolerance test (IPGTT)” for “regarding biochemical characterization”, “follows. After a 16 h overnight fasting period, whole-blood glucose was measured with a glucose analyzer ([…], Taiwan). An enzymatic assay was used to measure the” for “follows. The”, “serum insulin concentration (Cisbio, USA). Intraperitoneal glucose tolerance tests (IPGTTs) were performed in all mice 12 weeks after the start of the study. Mice fasted for 16 h were injected intraperitoneally with glucose 1.0 g/kg body weight, blood glucose” for “serum triglyceride (TG), total cholesterol (TC), high-density lipoprotein-cholesterol (HDL-C), glutamic oxaloacetic transaminase (GOT), glutamic pyruvic transaminase (GPT), albumin (ALB), uric acid (UA), and creatinine (CRE)”, “measured in tail vain blood at 0, 30, 60, 90, 120 and 150 min.” for “measured using enzymatic assay kits with a FUJI DRI-CHEM analyzer (Fujifilm, Tokyo, Japan). The LDL-C level was calculated as [(TC)-(HDL-C)-(TG/5)].”

[3] = system: HFD-induced obese C57BL/6J mice; experiment: Liver fat deposition and liver damage markers (NAFLD) in HFD-induced obese mice; conditions: for liver weight / ratio of liver weight and body weight / lipid accumulation in the liver tissue (H&E and Oil Red O staining) / hepatic cholesterol (TC) level / hepatic triglyceride (TG) level: HFD mice, 12 weeks oral; for liver weight: CX 10 and 30 mg/kg/day, EGCG 30 mg/kg/day; for ratio of liver weight and body weight: among all groups; for lipid accumulation in the liver tissue (H&E and Oil Red O staining): normal morphology of liver cells maintained; for hepatic cholesterol (TC) level / hepatic triglyceride (TG) level: vs HFD; for serum albumin (ALB) level: compared with ND group, HFD group significantly higher
From the text: as §1, with “regarding immunohistochemical tissue characterization is as follows. During dissection of the mice, epididymis adipose tissue and liver were isolated, weighed, and subsequently fixed in 10% paraformaldehyde in PBS. After overnight fixation, tissues were embedded in paraffin for hematoxylin and eosin (H&E) staining. All specimens were observed microscopically (Carl Zeiss Inc., Germany) at 200× magnification. […] The procedure regarding” for “regarding”, “[(TC)-(HDL-C)-(TG/5)]. The procedure regarding triglyceride and cholesterol analysis of liver tissue is as follows. For triglyceride and cholesterol determinations, mouse liver tissues were extracted and analyzed using triglyceride and cholesterol quantitation assay kits (Abcam, UK), respectively, according to the manufacturer's instruction.” for “[(TC)-(HDL-C)-(TG/5)].”

[4] = CX treatment vs HFD group, 12 weeks oral
[5] = CX at both supplementations (10 and 30 mg/kg/day), 12 weeks

With `O=C(O[C@@H]1Cc2c(O)cc(O)cc2O[C@@H]1c1cc(O)c(O)c(O)c1)c1cc(O)c(O)c(O)c1` [EGCG, epigallocatechin gallate, reference compound] the “serum CRE level, difference to ND group” value [1] was “no significant difference”, the “serum uric acid (UA) level, difference to ND group” value [1] was “no significant difference” and the fasting blood glucose ([2]; 30 mg/kg/day oral) was “stable and significantly lower than the HFD group”. The liver weight [3] was “significantly lower than HFD group”, the “ratio of liver weight and body weight” value [3] was “did not differ among all groups” and the “lipid accumulation in the liver tissue (H&E and Oil Red O staining)” value [3] was “greatly ameliorated”. The “hepatic cholesterol (TC) level” value [3] was “much lower”, the “hepatic triglyceride (TG) level” value [3] was “much lower” and the “serum albumin (ALB) level” value [3] was “no difference”.
`COc1ccc2[nH]c(=O)oc2c1` [CX, 6-methoxybenzoxazolinone] was tested, and the “serum CRE level, difference to ND group” value [1] was “no significant difference”, the “serum uric acid (UA) level, difference to ND group” value [1] was “no significant difference” and the “serum creatinine (CRE) level” value [1, 4] was “decreased”. For the same molecule, the “serum uric acid (UA) level” value [1, 4] was “decreased”, the “insulin resistance index HOMA-IR” value ([2]; 10 mg/kg/day oral) was “significantly lower” and the “fasting insulin concentration (insulin expression)” value ([2]; 10 mg/kg/day oral) was “significantly lower than that of the HFD group”. The fasting blood glucose ([2]; 10 mg/kg/day oral) was “stable and significantly lower than the HFD group”, the “AUC of IPGTT” value ([2]; 10 mg/kg/day oral) was “significantly decreased” and the “insulin resistance index HOMA-IR” value ([2]; 30 mg/kg/day oral) was “significantly lower”. The “fasting insulin concentration (insulin expression)” value ([2]; 30 mg/kg/day oral) was “significantly lower than that of the HFD group”, the fasting blood glucose ([2]; 30 mg/kg/day oral) was “stable and significantly lower than the HFD group” and the “AUC of IPGTT” value ([2]; 30 mg/kg/day oral) was “significantly decreased”. The “serum GOT (HFD-induced high level)” value [3, 5] was “significantly prevented”, the “serum GPT (HFD-induced high level)” value [3, 5] was “significantly prevented” and the liver weight [3] was “significantly lower than HFD group”. For the same molecule, the “ratio of liver weight and body weight” value [3] was “did not differ among all groups”, the “lipid accumulation in the liver tissue (H&E and Oil Red O staining)” value [3] was “greatly ameliorated” and the “hepatic cholesterol (TC) level” value [3] was “much lower”. The “hepatic triglyceride (TG) level” value [3] was “much lower” and the “serum albumin (ALB) level” value [3] was “no difference”.
